Results from article PMC6270209, “Synthesis, Antimycobacterial Activity and In Vitro Cytotoxicity of 5-Chloro-N-phenylpyrazine-2-carboxamides” (Molecules, 2013).
≈ marks a conversion by molar mass, not a printed value. Like-named read-outs stand apart in the source and are kept apart here.

Tests used:
M. avium CNCTC My 152/73 = assay: In vitro antimycobacterial activity, microdilution panel method (MIC); type: cell-based, Mycobacterium avium; details: for MIC: Mycobacterium avium
in vitro = details: human
[1] = test system: M. kansasii Hauduroy CNCTC My 235/80; assay: In vitro antimycobacterial activity, microdilution panel method (MIC); type: cell-based, Mycobacterium kansasii; details: for MIC: Mycobacterium kansasii; for MIC / Antimycobacterial activity MIC, M. kansasii: M. kansasii Hauduroy CNCTC My 235/80
[2] = test system: M. avium ssp. avium Chester CNCTC My 80/72; assay: as above; type: cell-based, Mycobacterium avium; details: for MIC: Mycobacterium avium
HepG2 cells = details: for IC50: read-out: Cytotoxicity IC50, HepG2 cells, 24 h incubation (Table 1)
[3] = RP-HPLC, C18, MeOH 70% / H2O 30%, 30 °C
[4] = test system: M. tuberculosis H37Rv CNCTC My 331/88; assay: In vitro antimycobacterial activity, microdilution panel method (MIC); type: cell-based, Mycobacterium tuberculosis; details: for MIC: Mycobacterium tuberculosis, H37RV
[5] = Solubility in antimycobacterial testing medium (observation); type: physicochemical
[6] = pH 5.6, M. tuberculosis H37Rv, primary test, dilution scale 100–[…], Šula's medium pH 5.6, read-out: Antimycobacterial activity MIC, M. tbc
[7] = SI calculated for M. tbc as IC50 (HepG2)/MIC (in μM) using the lower MIC values (Table 1)
[8] = M. tuberculosis H37Rv, retest with extended dilution scale up to 0.39 µg/mL, read-out: Antimycobacterial activity MIC, M. tbc (confirmation retest, value in parentheses)
[9] = M. tuberculosis H37Rv, primary test, dilution scale 100–[…], Šula's medium pH 5.6
[10] = M. tuberculosis H37Rv, retest with extended dilution scale up to 0.39 µg/mL

SMILES | MIC (M. avium CNCTC My 152/73) [µg/mL] | IC50 (in vitro) [µM] | MIC [1] [µg/mL] | MIC [2] [µg/mL] | MIC [4, 6] [µg/mL] | Cytotoxicity SI (HepG2 cells; [7]) | further results
NC(=O)c1cnccn1 [PZA, pyrazinamide, reference compound] | > 100 | > 10000 | > 100 | > 100 | 6.25 to 12.5 |  | Cytotoxicity SI (HepG2 cells; human): >196; Lipophilicity logk [3]: −0.687; MIC ([4]; read-out: M. tbc H37Rv MIC (µM), MIC converted to molar concentrations): 51 to 102 µM
O=C(Nc1ccc(F)cc1F)c1cnc(Cl)cn1 [Compound 11, 5-Chloro-N-(2,4-difluorophenyl)pyrazine-2-carboxamide] | > 50 |  | 6.25 (≈ 23.2 µM) | > 50 | 3.13 |  | 
COc1ccc(NC(=O)c2cnc(Cl)cn2)c(OC)c1 [Compound 5] | > 50 |  | > 50 | > 50 | > 50 |  | Solubility in testing medium (in words) [5]: Insufficient solubility; Antimycobacterial activity against M. tbc H37Rv (in words) [4]: inactive
O=C(Nc1cc([N+](=O)[O-])ccc1O)c1cnc(Cl)cn1 [Compound 23, 5-Chloro-N-(2-hydroxy-5-nitrophenyl)pyrazine-2-carboxamide] | 50 (≈ 170 µM) | 1.52 |  | 50 (≈ 170 µM) | 1.56 | 0.29 | MIC [4, 8]: 1.56 µg/mL
O=C(Nc1cccc(Cl)c1)c1cnc(Cl)cn1 [Compound 13] |  |  |  |  |  |  | Antimycobacterial activity MIC, M. avium (M. avium CNCTC My 152/73): 25 µg/mL; Antimycobacterial activity MIC, M. kansasii [1]: 25 µg/mL; Antimycobacterial activity MIC, M. avium [2]: 25 µg/mL; Lipophilicity logk [3]: 0.587; Antimycobacterial activity MIC, M. tbc [4, 9]: 6.25 µg/mL; Antimycobacterial activity MIC, M. tbc (confirmation retest, value in parentheses) [4, 10]: 3.13 µg/mL
O=C(Nc1ccc(Cl)c(Cl)c1)c1cnc(Cl)cn1 [Compound 14, 5-Chloro-N-(3,4-dichlorophenyl)pyrazine-2-carboxamide] | > 100 | 9.1 | > 100 | > 100 | 3.13 | 0.88 | 
O=C(Nc1cccc(C(F)(F)F)c1)c1cnc(Cl)cn1 [Compound 28, 5-Chloro-N-(3-(trifluoromethyl)phenyl)pyrazine-2-carboxamide] | > 100 | 41.4 | 12.5 (≈ 41.4 µM) | > 100 | 3.13 | 3.99 | MIC [4, 8]: 6.25 µg/mL
Cc1ccc(F)cc1NC(=O)c1cnc(Cl)cn1 [Compound 19, 5-Chloro-N-(5-fluoro-2-methylphenyl)pyrazine-2-carboxamide] | > 100 |  | 25 (≈ 94.1 µM) | > 100 | 3.13 |  | MIC [4, 8]: 6.25 µg/mL
N#Cc1ccc(NC(=O)c2cnc(Cl)cn2)cc1 [Compound 27, 5-Chloro-N-(4-cyanophenyl)pyrazine-2-carboxamide] | > 100 |  | > 100 | > 100 | > 100 |  | Antimycobacterial activity against M. tbc H37Rv (in words) [4]: inactive
O=C(Nc1ccccc1O)c1cnc(Cl)cn1 [Compound 2, 5-Chloro-N-(2-hydroxyphenyl)pyrazine-2-carboxamide] | > 100 | 30 |  | > 100 | 3.13 | 2.39 | MIC [4, 8]: 0.78 µg/mL
CC(C)c1ccc(NC(=O)c2cnc(Cl)cn2)cc1 [Compound 8, 5-Chloro-N-(4-isopropylphenyl)pyrazine-2-carboxamide] | > 100 | 14.4 |  | > 100 | 1.56 | 2.55 | 
O=C(Nc1cccc(F)c1)c1cnc(Cl)cn1 [Compound 10, 5-Chloro-N-(3-fluorophenyl)pyrazine-2-carboxamide] | > 100 |  | 12.5 (≈ 49.7 µM) | > 100 | 6.25 |  | 
Cc1ccc(C)c(NC(=O)c2cnc(Cl)cn2)c1 [Compound 6, 5-Chloro-N-(2,5-dimethylphenyl)pyrazine-2-carboxamide] | > 100 | 11.7 | > 100 | > 100 | 1.56 | 1.96 | MIC [4, 8]: 1.56 µg/mL
O=C(Nc1ccccc1F)c1cnc(Cl)cn1 [Compound 9] |  |  |  |  |  |  | Antimycobacterial activity MIC, M. avium (M. avium CNCTC My 152/73): >100 µg/mL; Antimycobacterial activity MIC, M. kansasii [1]: 12.5 µg/mL; Antimycobacterial activity MIC, M. avium [2]: >100 µg/mL; Lipophilicity logk [3]: 0.490; Antimycobacterial activity MIC, M. tbc [4, 9]: 6.25 µg/mL
O=C(Nc1ccccc1Cl)c1cnc(Cl)cn1 [Compound 12] |  |  |  |  |  | 0.58 | Antimycobacterial activity MIC, M. avium (M. avium CNCTC My 152/73): >100 µg/mL; Antimycobacterial activity MIC, M. avium [2]: >100 µg/mL; IC50 (HepG2 cells): 6.72 µM; Lipophilicity logk [3]: 0.819; Antimycobacterial activity MIC, M. tbc [4, 9]: 3.13 µg/mL; Antimycobacterial activity MIC, M. tbc (confirmation retest, value in parentheses) [4, 10]: 0.78 µg/mL
O=C(Nc1cccc([N+](=O)[O-])c1)c1cnc(Cl)cn1 [Compound 25] |  |  |  |  |  | 2.91 | Antimycobacterial activity MIC, M. avium (M. avium CNCTC My 152/73): >100 µg/mL; Antimycobacterial activity MIC, M. avium [2]: >100 µg/mL; IC50 (HepG2 cells): 32.7 µM; Lipophilicity logk [3]: 0.344; Antimycobacterial activity MIC, M. tbc [4, 9]: 3.13 µg/mL
O=C(Nc1ccc(O)c(Cl)c1)c1cnc(Cl)cn1 [Compound 22, 5-Chloro-N-(3-chloro-4-hydroxyphenyl)pyrazine-2-carboxamide] | 25 (≈ 88 µM) | 12.9 | > 100 | 50 (≈ 176 µM) | 3.13 | 1.17 | MIC [4, 8]: 0.39 µg/mL
Cc1ccc(Cl)c(NC(=O)c2cnc(Cl)cn2)c1 [Compound 20, 5-Chloro-N-(2-chloro-5-methylphenyl)pyrazine-2-carboxamide] | > 100 | 15.8 | 25 (≈ 88.6 µM) | > 100 | 1.56 | 2.86 | 
O=C(Nc1cc(Cl)c(Cl)cc1Cl)c1cnc(Cl)cn1 [Compound 15, 5-Chloro-N-(2,4,5-trichlorophenyl)pyrazine-2-carboxamide] | > 100 |  | > 100 | > 100 | > 100 |  | melting point: 189.3 to 192.4 °C; Solubility in testing medium (in words) [5]: low solubility; Antimycobacterial activity against M. tbc H37Rv (in words) [4]: inactive or weakly active
O=C(Nc1ccccc1[N+](=O)[O-])c1cnc(Cl)cn1 [Compound 24, 5-Chloro-N-(2-nitrophenyl)pyrazine-2-carboxamide] | > 100 |  |  | > 100 | 12.5 |  | 
O=C(Nc1ccc(C(F)(F)F)cc1)c1cnc(Cl)cn1 [Compound 29, 5-Chloro-N-(4-(trifluoromethyl)phenyl)pyrazine-2-carboxamide] | > 100 | 8.5 | 12.5 (≈ 41.4 µM) | > 100 | 1.56 | 1.64 | MIC [4, 8]: 3.13 µg/mL
O=C(Nc1ccc(Br)cc1)c1cnc(Cl)cn1 [Compound 17] |  |  |  |  |  |  | Antimycobacterial activity MIC, M. avium (M. avium CNCTC My 152/73): >100 µg/mL; Antimycobacterial activity MIC, M. kansasii [1]: 6.25 µg/mL; Antimycobacterial activity MIC, M. avium [2]: >100 µg/mL; Lipophilicity logk [3]: 0.660; Antimycobacterial activity MIC, M. tbc [4, 9]: 3.13 µg/mL
O=C(Nc1cccc(O)c1)c1cnc(Cl)cn1 [Compound 3, 5-Chloro-N-(3-hydroxyphenyl)pyrazine-2-carboxamide] | 100 (≈ 401 µM) | 32.1 | 50 (≈ 200 µM) | > 100 | 6.25 | 1.28 | Activity against M. kansasii (in words) [1]: inactive
O=C(Nc1cccc(Br)c1)c1cnc(Cl)cn1 [Compound 16, 5-Chloro-N-(3-bromophenyl)pyrazine-2-carboxamide] | > 100 |  | 25 (≈ 80 µM) | > 100 | 25 |  | 
O=C(Nc1ccc(I)cc1Cl)c1cnc(Cl)cn1 [Compound 18, 5-Chloro-N-(2-chloro-4-iodophenyl)pyrazine-2-carboxamide] | > 50 |  | 1.56 (≈ 3.96 µM) | > 50 | 12.5 |  | Activity against M. kansasii (in words) [1]: most active; melting point: 175.6 to 177.3 °C; Solubility in testing medium (in words) [5]: low solubility; Antimycobacterial activity against M. tbc H37Rv (in words) [4]: inactive or weakly active
CCc1ccc(NC(=O)c2cnc(Cl)cn2)cc1 [Compound 7, 5-Chloro-N-(4-ethylphenyl)pyrazine-2-carboxamide] | > 100 | 7.17 |  | > 100 | 1.56 | 2.41 | MIC [4, 8]: 0.78 µg/mL
N#Cc1cccc(NC(=O)c2cnc(Cl)cn2)c1 [Compound 26, 5-Chloro-N-(3-cyanophenyl)pyrazine-2-carboxamide] | > 50 |  | 3.13 (≈ 12.1 µM) | > 50 | 25 |  | Antimycobacterial activity MIC, M. kansasii [1]: ≤ 6.25 µg/mL; Antimycobacterial activity against M. tbc H37Rv (in words) [4]: low activity
